Data on eight molecules can be found in PubChem BioAssay (NCI).

Common to all, as to assay: NCI tumour cell line growth inhibition, 48 h
Assay [1] concerns HCC-2998 colon.
The test system of assay [2] is HCT-116 colon.
The test system of assay [3] is HS 578T breast.
Assay [4] deals with KM12 colon.
Assay [5] has as its system MDA-MB-231 breast.
The subject of assay [6] is NCI-H226 lung.
The subject of assay [7] is SF-295 CNS.
In assay [8] the test system is SF-539 CNS.
The test system of assay [9] is SN12C renal.
The subject of assay [10] is U251 CNS.

The structures appear in SMILES notation.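 Five compound concentrations were applied to cells in 96-well plates for 48 hours; endpoints were derived by simple linear interpolation of the resulting dose-response curve. At the GI50, growth is halved. TGI marks complete inhibition of growth.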 Some results are limits rather than exact numbers.

For the molecule `Cc1cccc(C)c1NC(=O)Nc1ccc(S(N)(=O)=O)cc1`, the TGI in assay [1], in assay [2], in assay [3], in assay [4], in assay [5] and in assay [6] was over 100 µM each time. Besides, the TGI in assay [7], in [8], in [9] and in [10] was over 100 µM throughout.
With `COc1ccc2c(c1)CC[C@H](O)/C2=C/c1cc(OC)c(OC)c(OC)c1`, the GI50 in [1] was 0.16 µM; in assay [2], 0.104 µM; in assay [3] it was 0.101 µM; in assay [4], 0.093 µM; in [5], 0.604 µM; in assay [6] it was 2.95 µM. Moreover, the results for the GI50 in assay [8], in assay [9] and in assay [10] were 0.0722 µM, 0.998 µM and 0.143 µM, respectively. For the same molecule, the TGI in assay [1], in [2], in [3], in assay [4], in [5] and in assay [6] was over 100 µM throughout. The figures for the TGI in assay [8], in [9] and in assay [10] were 0.43 µM, over 100 µM and over 100 µM, respectively.
As to `CN/N=C(\C)C(CN(C)C)C(c1ccccc1)c1c(O)c2ccccc2oc1=O` (stereo unspecified), the TGI in assay [1], in assay [2], in assay [3], in assay [4], in assay [5] and in assay [6] was over 100 µM each time. The TGI in assay [7], in [8], in assay [9] and in [10] was over 100 µM each time.
Consider `COc1nc(N)nc2c1ncn2C1OC(CO)C(O)C1O` (stereo unspecified), for which the GI50 in assay [1], in [2], in assay [3], in [4], in [5] and in [6] was over 5000 µM each time. Moreover, the GI50 is over 5000 µM in [7], 3800 µM in assay [8], 3280 µM in assay [9] and over 5000 µM in assay [10]. For the same molecule, the TGI in assay [1], in assay [2], in assay [3], in [4], in assay [5] and in assay [6] was over 5000 µM throughout. The TGI in assay [7], in assay [8], in assay [9] and in assay [10] was over 5000 µM in each case.
For `Cc1cn2c(/C=N/N=C(N)N)c(-c3cccs3)nc2s1`, the GI50 in assay [1] is 1.77 µM; in [2], 1.35 µM; in assay [3], 11.4 µM; in assay [4], 2.39 µM; in [5] it was 1.9 µM; in [6], 4.18 µM. For the same molecule, the GI50 was 3.28 µM in [7], 1.6 µM in assay [8], 0.161 µM in assay [9] and 1.77 µM in assay [10]. Besides, the TGI in [1] is 3.24 µM; in assay [2] it was 2.63 µM; in assay [3], 32.6 µM; in assay [4], 8.3 µM; in assay [5], 5.79 µM; in assay [6], 18.9 µM. For the same molecule, the TGI came out at 14.4 µM in assay [7], 3.12 µM in [8], 3.08 µM in assay [9] and 3.86 µM in [10].
With `COC(=O)c1cc(O)c2c(c1C(=O)OC)C[C@H]1[C@@H]3CC=C4C[C@@H](O)CC[C@]4(C)[C@H]3CC[C@]21C`, the GI50 is 3.74 µM in assay [1]; 3.09 µM in assay [2]; 2.78 µM in assay [3]; 2.91 µM in assay [4]; 2.52 µM in [5]; 3.78 µM in assay [6]. Besides, the GI50 in assay [7] is 1.72 µM; in [8] it was 2.1 µM; in assay [9], 3.57 µM; in [10], 1.93 µM. For the same molecule, the TGI worked out at 16 µM in assay [1]; 14.6 µM in [2]; 19.5 µM in assay [3]; 12.2 µM in assay [4]; 7.41 µM in assay [5]; 20 µM in [6]. Further, the TGI in assay [7] is 4.4 µM; in [8], 6.65 µM; in assay [9], 26.8 µM; in assay [10], 7.82 µM.
As for `COc1ccc(C(=O)c2cc3c(N)c(C(=O)Nc4ccc(C)cc4)sc3nc2C)cc1`, the GI50 in assay [1] was 4.01 µM; in [2], 3.19 µM; in [3], 2.29 µM; in assay [4], 2.44 µM; in assay [5], 2.7 µM; in assay [6], 4.22 µM. Also, the GI50 was 2.51 µM in assay [7], 2.5 µM in assay [8], 6.93 µM in assay [9] and 3.6 µM in [10]. Besides, the TGI is over 100 µM in assay [1]; 22.2 µM in assay [2]; 17.9 µM in [3]; over 100 µM in assay [4]; 13.2 µM in assay [5]; 30.8 µM in assay [6]. Further, the TGI in [7] was 15 µM; in assay [8] it was 9.38 µM; in assay [9], over 100 µM; in [10], 28.8 µM.
With `Cc1cc(N2CCSCC2)nc(NC2CCCC(Nc3ccnc4cc(Cl)ccc34)C2)n1` (stereo unspecified), the GI50 in [1] was 1.81 µM; in assay [3], 1.87 µM; in assay [4], 1.94 µM; in assay [5] it was 1.95 µM; in assay [6] it was 3.2 µM; in [7], 1.7 µM. For the same molecule, the GI50 is 1.69 µM in assay [8], 1.9 µM in [9] and 1.91 µM in assay [10]. Further, the TGI in assay [1] worked out at 3.63 µM; in assay [3], 4.64 µM; in assay [4] it was 4.25 µM; in assay [5], 3.89 µM; in assay [6] it was 11 µM; in assay [7], 3.27 µM. The TGI is 3.16 µM in assay [8], 4.37 µM in [9] and 3.7 µM in assay [10].
